A word on the GI50: it is the concentration that inhibits growth by half. Broadly, the TGI is the concentration at which net growth stops. Low values mean more potent growth arrest, high ones less potent growth arrest.

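Where inhibition never reached the appropriate level, the endpoint shown equals the highest concentration tested. Otherwise, values were interpolated linearly from a five-concentration, 48-hour dose response in 96-well plates. GI50 marks 50% less growth. Definition used: TGI = concentration required for complete inhibition of growth.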

Drawing on PubChem BioAssay (NCI), this text covers GI50 and TGI for 13 molecules.

Some test systems named below: BT-549 breast; HS 578T breast; MCF7 breast; MDA-MB-231 breast; MDA-MB-435; NCI/ADR-RES ovarian; MDA-N.
Holding throughout (experiment): DTP human tumour cell line panel, 48 h

As to `O=[N+]([O-])c1ccc(S(=O)Cc2ccccc2)c([N+](=O)[O-])c1` (stereo not drawn), the GI50 was 2.09 µM in the assay on BT-549 breast; 21.4 µM with HS 578T breast; 2.48 µM in the assay with MCF7 breast; 2.82 µM in the assay on MDA-MB-231 breast; 2.51 µM in the assay on MDA-MB-435; 13.5 µM in the assay on NCI/ADR-RES ovarian. Besides, the TGI is 7.37 µM in the assay on BT-549 breast; > 100 µM in the assay with HS 578T breast; 6.96 µM in the assay on MCF7 breast; 8.92 µM with MDA-MB-231 breast; 7.69 µM with MDA-MB-435; 35.4 µM in the assay with NCI/ADR-RES ovarian.

For the molecule `CO/C(=N\N=C\c1cccc(Cl)c1)c1ccncc1`, the TGI in the assay with BT-549 breast, with MCF7 breast, in the assay on MDA-MB-231 breast, in the assay with MDA-MB-435, in the assay on MDA-N and with NCI/ADR-RES ovarian was > 10 µM throughout.

`CC(C)CNCC(O)COc1ccc(C(C)(C)c2ccc(OCC(O)CNCC(C)C)cc2)cc1` (stereo not drawn): the GI50 was 7.82 µM with BT-549 breast; 5 µM with HS 578T breast; 1.73 µM in the assay with MCF7 breast; 1.5 µM in the assay on MDA-MB-231 breast; 1.73 µM with MDA-MB-435; 7.63 µM in the assay on NCI/ADR-RES ovarian. Also, the TGI with BT-549 breast is 21 µM; with HS 578T breast it was 21.9 µM; in the assay with MCF7 breast, 3.48 µM; in the assay on MDA-MB-231 breast, 3.25 µM; in the assay with MDA-MB-435 it was 3.29 µM; in the assay with NCI/ADR-RES ovarian it was 21.4 µM.

For `CC1OC2=N[C@@H]1C(=O)N[C@@H](C(C)C)C1=N[C@H](C(=O)N[C@@H](C(C)C)C3=N[C@H](C(=O)N[C@@H](C(C)C)C4=N[C@H](C(=O)N[C@H]2C(C)C)C(C)O4)C(C)O3)C(C)O1` (stereo partly drawn), the TGI in the assay with HS 578T breast, with MCF7 breast, with MDA-MB-231 breast, in the assay with MDA-MB-435, in the assay on MDA-N and in the assay with NCI/ADR-RES ovarian was > 10 µM throughout.

On to `O=C1C(c2c[nH]c3ccccc23)=C(c2c[nH]c3ccccc23)C(=O)N1O`, for which the GI50 in the assay with BT-549 breast was > 25 µM; with HS 578T breast, > 19.7 µM; with MCF7 breast it was > 25 µM; in the assay on MDA-MB-231 breast, > 19.4 µM; in the assay with MDA-MB-435 it was > 25 µM; in the assay with NCI/ADR-RES ovarian, > 25 µM. The concentration for total growth inhibition (TGI) in the assay with BT-549 breast, in the assay with HS 578T breast, with MCF7 breast, in the assay with MDA-MB-231 breast, in the assay on MDA-MB-435 and with NCI/ADR-RES ovarian was > 25 µM in each case.

Turning to `Cc1ccc(/C(=N\N=C(N)N)c2ccccc2)cc1`, the GI50 in the assay with BT-549 breast is 0.744 µM; in the assay on HS 578T breast it was 0.349 µM; in the assay on MCF7 breast, 0.292 µM; in the assay with MDA-MB-231 breast, 0.394 µM; with MDA-MB-435, 0.203 µM; with NCI/ADR-RES ovarian it was 1.09 µM. Further, the TGI in the assay on BT-549 breast is 7.62 µM; in the assay on HS 578T breast, 3.67 µM; with MCF7 breast, 10.2 µM; in the assay on MDA-MB-231 breast, 3.93 µM; in the assay on MDA-MB-435, 0.631 µM; in the assay on NCI/ADR-RES ovarian, 4.51 µM.

For the molecule `FC(F)(F)c1cc(-c2nnc3n2N=C(N2CCCC2)CS3)cc(C(F)(F)F)c1`, the GI50 is > 50 µM in the assay with BT-549 breast; 17.9 µM in the assay on HS 578T breast; > 50 µM with MCF7 breast; 32.2 µM in the assay with MDA-MB-231 breast; > 50 µM in the assay with MDA-MB-435; > 50 µM in the assay on NCI/ADR-RES ovarian. For the same molecule, the TGI with BT-549 breast, in the assay on HS 578T breast, with MCF7 breast, with MDA-MB-231 breast, in the assay with MDA-MB-435 and in the assay with NCI/ADR-RES ovarian was > 50 µM throughout.

Take `CCC(=O)O[C@H]1CC[C@H]2[C@@H]3CC[C@H]4CC(=O)[C@H](C)C[C@]4(C)[C@H]3CC[C@]12C`: the GI50 was 37 µM with BT-549 breast; 44 µM with HS 578T breast; 23.9 µM in the assay on MCF7 breast; > 90.8 µM in the assay with MDA-MB-231 breast; 48.7 µM in the assay on MDA-MB-435; 38.3 µM in the assay on NCI/ADR-RES ovarian. The TGI with BT-549 breast is > 100 µM; with HS 578T breast, > 100 µM; with MCF7 breast it was > 66.1 µM; in the assay on MDA-MB-231 breast, > 100 µM; in the assay with MDA-MB-435, > 100 µM; in the assay with NCI/ADR-RES ovarian it was > 100 µM.

`CCc1n(Cc2ccc3ccccc3n2)cc[n+]1Cc1ccc2ccccc2n1`: the GI50 was 0.278 µM with BT-549 breast; 1.88 µM in the assay with HS 578T breast; 0.135 µM with MCF7 breast; 0.441 µM in the assay with MDA-MB-231 breast; 0.141 µM with MDA-MB-435; > 100 µM in the assay on NCI/ADR-RES ovarian. Further, the TGI with BT-549 breast was 11.2 µM; with HS 578T breast, 26.1 µM; with MCF7 breast, 11.6 µM; with MDA-MB-231 breast, 4.16 µM; with MDA-MB-435, 10.3 µM; in the assay on NCI/ADR-RES ovarian, > 100 µM.

As to `CCN(CC)CCNc1ccc([N+](=O)[O-])c2sc3ccccc3c(=O)c12`, the GI50 with BT-549 breast was 1.74 µM; in the assay on HS 578T breast, 2.17 µM; in the assay on MCF7 breast it was 1.27 µM; in the assay with MDA-MB-231 breast it was 2.29 µM; with MDA-MB-435 it was 0.901 µM; with NCI/ADR-RES ovarian, 0.586 µM. The TGI in the assay with BT-549 breast amounted to 7.8 µM; with HS 578T breast, 8.15 µM; in the assay with MCF7 breast it was 4.74 µM; in the assay with MDA-MB-231 breast, 9.15 µM; with MDA-MB-435 it was 2.32 µM; with NCI/ADR-RES ovarian, 2.72 µM.

As for `COc1ccccc1/C=C/[N+](=O)[O-]`, the GI50 in the assay on BT-549 breast was 2.09 µM; with HS 578T breast, 2.79 µM; in the assay on MCF7 breast, 2.43 µM; in the assay with MDA-MB-231 breast, 2.06 µM; with MDA-MB-435 it was 2.59 µM; in the assay with NCI/ADR-RES ovarian it was 2.92 µM. The TGI with BT-549 breast was determined as 4.13 µM; with HS 578T breast, 8.83 µM; in the assay with MCF7 breast, 7.99 µM; in the assay on MDA-MB-231 breast it was 6.93 µM; in the assay on MDA-MB-435 it was 10.5 µM; in the assay with NCI/ADR-RES ovarian, 11.6 µM.

On to `O=C(/C=C/C12c3ccccc3C(c3ccccc31)C1C(=O)N(c3ccccc3)C(=O)C12)c1ccccc1` (stereo not drawn), for which the GI50 is 1.37 µM in the assay on BT-549 breast; 2.32 µM in the assay on HS 578T breast; 1.48 µM with MCF7 breast; 2.23 µM in the assay with MDA-MB-231 breast; 2.56 µM with MDA-MB-435; 2.23 µM in the assay with NCI/ADR-RES ovarian. The TGI in the assay with BT-549 breast is 3.02 µM; in the assay on HS 578T breast, > 100 µM; in the assay on MCF7 breast, > 100 µM; in the assay on MDA-MB-231 breast, 6.77 µM; in the assay with MDA-MB-435 it was > 100 µM; in the assay on NCI/ADR-RES ovarian it was > 100 µM.

As to `CCCCS(=O)CCC(N)C(=O)O` (stereo not drawn), the TGI in the assay with BT-549 breast, with HS 578T breast, in the assay with MCF7 breast, in the assay with MDA-MB-231 breast, in the assay on MDA-N and in the assay with NCI/ADR-RES ovarian was > 100 µM in each case.
